Counter-ions that a name gives are not always drawn. Like-named read-outs stand apart in the source and are kept apart here.
Columns and labels:
human PHD2 = target: T1, human PHD2 (Homo sapiens, UniProt Q9GZT9); assay: Measurement of human PHD inhibitory activity (TR-FRET, hydroxylation of HIF-1α partial peptide); assay type: biochemical; conditions: human PHD2 enzyme 1 nM, 25° C. 30 min, values consisting solely of numbers
T1 construct: made in house; host or cells: Sf9 insect cells (baculovirus, pVL1393 vector)
T1 sequence (Q9GZT9 whole entry): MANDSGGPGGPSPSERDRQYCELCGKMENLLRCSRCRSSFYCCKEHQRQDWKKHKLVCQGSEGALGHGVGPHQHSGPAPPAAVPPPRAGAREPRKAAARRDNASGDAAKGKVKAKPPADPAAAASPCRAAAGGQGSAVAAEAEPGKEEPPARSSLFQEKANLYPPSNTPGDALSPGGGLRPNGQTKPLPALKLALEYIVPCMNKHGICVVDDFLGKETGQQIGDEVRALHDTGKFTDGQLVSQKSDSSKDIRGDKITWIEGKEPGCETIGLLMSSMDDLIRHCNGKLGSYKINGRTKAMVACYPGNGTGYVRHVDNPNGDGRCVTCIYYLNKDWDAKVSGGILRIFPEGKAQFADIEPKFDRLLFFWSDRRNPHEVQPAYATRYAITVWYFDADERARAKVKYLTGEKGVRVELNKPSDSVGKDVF
In short: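 FLAG-tagged human PHD2 from Sf9 cells (1 nM final) hydroxylates a biotinylated 19-residue HIF-1α peptide, 30 min at 25° C. After EDTA stop, hydroxyproline detected by TR-FRET using Eu/Xlent-labelled VBC complex; % inhibition relative to no-enzyme and no-compound wells.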

[1] = tested on: human EPO production, Hep3B cells; assay: Human EPO production activity in Hep3B cells (EPO-ELISA of culture supernatant); assay type: cell-based; conditions: for EC50: 24 hr incubation, values consisting solely of numbers, read-out: EC50 (μM) in vitro, human EPO production activity; for production activity (%) at 30 μM in vitro, human EPO: 24 hr, values containing %, relative to maximum production
In short: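 Hep3B cells were dosed with compound 24 h after plating and incubated 24 h at 37° C. Secreted EPO in supernatant was measured by ELISA. Values are EC50, or activity (%) at 30 μM scaled between untreated and maximum production.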

[2] = read-out: IC50 (μM) in vitro, human PHD inhibitory activity

IC50 (human PHD2; [2]) | EC50 ([1]; Homo sapiens) | SMILES | production activity (%) at 30 μM in vitro, human EPO [1] | IC50 (human PHD2; IC50 (μM) in vitro, human PHD inhibitory activity) | EC50 [1]
0.15 µM | 6.5 µM | O=C(O)CNC(=O)c1c(O)cc(-c2cccc(C(F)(F)F)c2)c2ncnn12 [Example 110, {[6-hydroxy-8-(3-trifluoromethyl phenyl)[1,2,4]triazolo[1,5-a]pyridine-5-carbonyl]amino} acetic acid hydrochloride] | – | – | –
1.1 µM | – | Cl.O=C(O)CNC(=O)c1c(O)c(-c2ccccc2)cn2c(-c3ccccc3)nnc12 [Example 111, [(7-hydroxy-3,6-diphenyl[1,2,4]triazolo[4,3-a]pyridine-8-carbonyl)amino] acetic acid hydrochloride] | 0% | – | –
3.09 µM | – | Cc1nnc2c(C(=O)NCC(=O)O)c(O)c(-c3ccccc3)cn12.Cl [Example 112, [(7-hydroxy-3-methyl-6-phenyl[1,2,4]triazolo[4,3-a]pyridine-8-carbonyl)amino] acetic acid hydrochloride] | 0% | – | –
0.56 µM | – | O=C(O)CNC(=O)c1c(O)ccn2c(-c3ccccc3)nnc12 [Example 113, [(7-hydroxy-3-phenyl[1,2,4]triazolo[4,3-a]pyridine-8-carbonyl)amino] acetic acid] | 0% | – | –
1.2 µM | – | Cl.O=C(O)CNC(=O)c1c(O)ccn2c(CCc3ccccc3)nnc12 [Example 114, [(7-hydroxy-3-phenethyl[1,2,4]triazolo[4,3-a]pyridine-8-carbonyl)amino] acetic acid hydrochloride] | 0% | – | –
1.8 µM | – | Cl.O=C(O)CNC(=O)c1c(O)ccn2c(CCC3CCCCC3)nnc12 [Example 115, {[3-(2-cyclohexylethyl)-7-hydroxy[1,2,4]triazolo[4,3-a]pyridine-8-carbonyl]amino} acetic acid hydrochloride] | 0% | – | –
– | – | O=C(O)CNC(=O)c1c(O)cc(CCc2ccccc2)n2ncnc12 [Example 116, [(7-hydroxy-5-phenethyl[1,2,4]triazolo[1,5-a]pyridine-8-carbonyl)amino] acetic acid] | – | 0.18 µM | 5.6 µM

From US8283465B2, “Triazolopyridine compound, and action thereof as prolyl hydroxylase inhibitor or erythropoietin production-inducing agent” (Japan Tobacco Inc., priority 2009, dated 2012)
